# Assay results: US9592243B2, “Medical devices and methods comprising an anabolic agent for treatment of an injury” (Warsaw Orthopedic, Inc., priority 2011, dated 2017)
# Tested on: surgical injury (linear full-thickness incisions)
# Assay: Injury strength of full-thickness surgical incisions, vacuum failure pressure (BTC-2000)
# Assay type: in vivo, male hairless guinea pigs
# Excerpt: In a recent proof-of-concept study, male hairless guinea pigs (n=30) receive bilateral incisions as previously described by Storch, Perry, Davidson, and Ward (Surg Infect (Larchmt) 2002; 3 Suppl 1:S89-98) This reference is herein incorporated by reference. Two linear full-thickness incisions exactly 2 cm long and separated by approximately 3 cm were made on the left and right dorsolateral regions of all animals. Incisions extend through the dermis and subcutaneous tissue and panniculus carnosus muscle. After the injuries were created, 200 μL of a […] aqueous suspension (1 mg of drug, ˜2.7 mg/kg) of generic stanozolol was applied directly into the injury bed in the right flank but not left flank of n=16 animals. The injury bed on the left side of these animals received 200 μL of saline vehicle control. In the remaining fourteen animals, incisions were not treated (nothing applied control). Only the incision in the right flank was assessed for injury strength in the nothing applied control animals. All injuries were then closed with interrupted nylon sutures. On days 2, 4, and 6 (in remaining animals), animals in the stanozolol group received 100 μL (0.5 mg, ˜1.4 mg/kg) of the same stanozolol suspension in the right injury and 100 μL of saline in the left injury, carefully injected with an insulin syringe introduced lateral to the injury and directed towards the injury bed. For each time point (days 5 and 7), injury strength was tested in 7 nothing applied control guinea pigs and 8 stanozolol guinea pigs after carefully removing dressing and sutures. Injury strength was measured by applying a vacuum to the injury and recording the pressure at which the injury fails. Biomechanical testing was performed under anesthesia using the […] (SRI Technologies, Nashville). A disposable acrylic test ring was placed around the injury and secured to the skin using acrylate glue. The BTC-2000™ test chamber (2.5 cm ID) was mated to the test ring. An escalating negative pressure was applied to the injury at a rate of 10 mm Hg/second, producing a multi-axial stress on the injury. […]
compound,measurement,setting,value
C[C@]12Cc3c[nH]nc3C[C@@H]1CC[C@@H]1[C@@H]2CC[C@@]2(C)[C@H]1CC[C@]2(C)O [stanozolol],"Effect on contralateral (saline treated, left flank) injuries in stanozolol treated animals","local stanozolol in right injury only, days 5 and 7",No effect
same,"Injury strength when exposed to pressure, compared to injuries with control or placebo (FIG. 1)","locally injected bolus dose of 1 mg initially, then 0.5 mg on days 2, 4, 6, tested on days 5 and seven",highest injury strength
same,Injury strength (pressure at which the injury fails) compared to nothing applied control injuries,"stanozolol aqueous suspension applied locally into right flank injury, 1 mg initially then 0.5 mg on days 2, 4, 6, tested on days 5 and 7",significantly stronger
